This assay has as its target T1, KCC2 (Homo sapiens, UniProt Q9H2X9).
T1 sequence (Q9H2X9 1-1116 isoform Q9H2X9-2): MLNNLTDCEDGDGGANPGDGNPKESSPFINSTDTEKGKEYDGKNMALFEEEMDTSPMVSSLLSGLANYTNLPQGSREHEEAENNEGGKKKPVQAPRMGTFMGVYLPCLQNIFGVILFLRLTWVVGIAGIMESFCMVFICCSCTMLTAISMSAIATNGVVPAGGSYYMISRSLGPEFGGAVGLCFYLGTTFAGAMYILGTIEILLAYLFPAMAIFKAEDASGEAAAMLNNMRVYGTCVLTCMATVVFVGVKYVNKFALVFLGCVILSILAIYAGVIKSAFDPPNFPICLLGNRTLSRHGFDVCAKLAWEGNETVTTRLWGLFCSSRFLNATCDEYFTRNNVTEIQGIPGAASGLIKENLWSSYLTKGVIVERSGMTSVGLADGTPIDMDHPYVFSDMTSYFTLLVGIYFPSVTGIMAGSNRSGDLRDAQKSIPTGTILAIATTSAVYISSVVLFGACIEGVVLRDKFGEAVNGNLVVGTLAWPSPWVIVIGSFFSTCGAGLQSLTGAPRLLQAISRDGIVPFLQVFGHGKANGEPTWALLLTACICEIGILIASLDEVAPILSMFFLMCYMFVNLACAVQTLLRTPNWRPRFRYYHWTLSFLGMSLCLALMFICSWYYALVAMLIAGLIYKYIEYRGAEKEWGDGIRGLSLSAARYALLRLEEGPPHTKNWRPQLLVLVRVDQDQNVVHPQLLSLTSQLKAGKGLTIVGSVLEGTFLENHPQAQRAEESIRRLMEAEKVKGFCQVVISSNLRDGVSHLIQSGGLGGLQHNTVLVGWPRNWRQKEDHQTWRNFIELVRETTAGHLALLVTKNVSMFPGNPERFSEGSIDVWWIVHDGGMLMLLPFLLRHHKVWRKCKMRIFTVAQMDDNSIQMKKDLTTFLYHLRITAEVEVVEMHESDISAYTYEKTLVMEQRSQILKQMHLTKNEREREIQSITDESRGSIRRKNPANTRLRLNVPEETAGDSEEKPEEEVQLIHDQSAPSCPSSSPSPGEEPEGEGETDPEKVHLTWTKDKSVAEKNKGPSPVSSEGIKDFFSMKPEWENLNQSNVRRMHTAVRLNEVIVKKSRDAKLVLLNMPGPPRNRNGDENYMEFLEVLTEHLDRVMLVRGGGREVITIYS
The assay is described as follows: Tl influx FLIPR assay in HEK-293 cells expressing KCC2. The assay is classed as cell-based.

Substance OV350 [compound 350] had a concentration giving a half-maximal response (EC50) of 261 ± 22.2 nM.

By EC50 is commonly meant the concentration needed to bring the measured effect to its halfway point. A higher EC50 goes with a less potent agent.
